Laboratory results taken from patent publication US10899733B2, “Inhibitors of PARPs that catalyze mono-ADP-ribosylation” (OREGON HEALTH & SCIENCE UNIVERSITY, priority 2017, dated 2021).
pIC50: −log10 of the molar value. Several values for one entry are separate records, joined by “and”; a condition that tells them apart may be missing. Equal entries are not always repeated.

Experiments:
PARP11 = biological target: T1, PARP11 (Homo sapiens, UniProt Q9NR21); test: Inhibition of PARP11-mediated ADP-ribosylation of SRPK2 using NAD+ (100 μM); format: biochemical; conditions: for pIC50 / PARP11 pIC50 ± S.E.M.: ADP-ribosylation of SRPK2, NAD+ 100 μM
T1 sequence (Q9NR21 1-338): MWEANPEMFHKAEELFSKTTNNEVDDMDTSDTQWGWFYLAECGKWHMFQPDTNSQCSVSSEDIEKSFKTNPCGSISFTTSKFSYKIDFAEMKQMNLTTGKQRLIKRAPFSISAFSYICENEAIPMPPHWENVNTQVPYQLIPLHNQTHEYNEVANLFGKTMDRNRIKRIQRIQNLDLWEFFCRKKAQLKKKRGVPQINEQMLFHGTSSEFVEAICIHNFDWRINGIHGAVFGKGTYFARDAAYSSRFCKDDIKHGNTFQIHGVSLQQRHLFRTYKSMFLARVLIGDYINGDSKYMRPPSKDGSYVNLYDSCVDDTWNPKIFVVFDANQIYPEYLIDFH

PARP10cat = biological target: T2, PARP10cat (Homo sapiens, UniProt Q53GL7); test: Inhibition of PARP10cat-mediated ADP-ribosylation of SRPK2 using NAD+ (100 μM); format: biochemical; conditions: for pIC50 / PARP10cat pIC50 ± S.E.M.: ADP-ribosylation of SRPK2, NAD+ 100 μM; for PARP11/PARP10: ratio of IC50 values, PARP11 over PARP10cat; for increase in potency for PARP10 compared to comparator compound: 8 and 3 compared to unsubstituted 1, 14 compared to 3; for improvement in selectivity for PARP10 over PARP11 compared to parent compound: 12 vs 8, 14 vs 3, 20, 22 vs 16, 23, 24 vs 15
T2 sequence (Q53GL7 806-1025 limits assumed): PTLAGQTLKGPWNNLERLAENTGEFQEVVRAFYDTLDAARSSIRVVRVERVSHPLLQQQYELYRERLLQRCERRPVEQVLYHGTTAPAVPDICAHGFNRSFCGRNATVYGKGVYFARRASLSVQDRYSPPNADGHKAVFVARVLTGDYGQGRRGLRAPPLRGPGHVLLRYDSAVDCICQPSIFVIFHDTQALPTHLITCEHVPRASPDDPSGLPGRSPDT

[1] = Aqueous solubility observed when assaying; format: physicochemical; conditions: observed in assays

O=C1NCCc2c(Br)cccc21 [Compound 2]
pIC50 (PARP11): 5.54
PARP11 pIC50 ± S.E.M. (PARP11): 5.54 ± 0.04
pIC50 (PARP10cat): 5.00
PARP10cat pIC50 ± S.E.M. (PARP10cat): 4.99 ± 0.04
PARP11/PARP10 (PARP10cat): 0.29

Cc1cccc2c1CCNC2=O [Compound 3, 5-methyl-dq]
pIC50 (PARP11): 5.68
PARP11 pIC50 ± S.E.M. (PARP11): 5.67 ± 0.05
selectivity for PARP10 over PARP11 (PARP10cat): 0.24 fold
increase in potency for PARP10 compared to comparator compound (PARP10cat): 8 fold
pIC50 (PARP10cat): 5.07
PARP10cat pIC50 ± S.E.M. (PARP10cat): 5.01 ± 0.03
PARP11/PARP10 (PARP10cat): 0.24

O=C1NCCc2c1cccc2-c1ccccc1 [Compound 4]
selectivity for PARP11 over PARP10 (PARP11): 30 fold
pIC50 (PARP11): 5.92
PARP11 pIC50 ± S.E.M. (PARP11): 5.93 ± 0.04
pIC50 (PARP10cat): 4.46
PARP10cat pIC50 ± S.E.M. (PARP10cat): 4.46 ± 0.04
PARP11/PARP10 (PARP10cat): 0.03

O=C1NCCc2cc(Br)ccc21 [Compound 5]
pIC50 (PARP11): 4.87
PARP11 pIC50 ± S.E.M. (PARP11): 4.87 ± 0.03
pIC50 (PARP10cat): 4.77
PARP10cat pIC50 ± S.E.M. (PARP10cat): 4.77 ± 0.03
PARP11/PARP10 (PARP10cat): 0.79

Cc1ccc2c(c1)CCNC2=O [Compound 6]
pIC50 (PARP11): 4.47
PARP11 pIC50 ± S.E.M. (PARP11): 4.47 ± 0.06
pIC50 (PARP10cat): 4.48
PARP10cat pIC50 ± S.E.M. (PARP10cat): 4.48 ± 0.04
PARP11/PARP10 (PARP10cat): 1.0

O=C1NCCc2cc(Cc3ccccc3)ccc21 [Compound 7]
pIC50 (PARP11): 4.78
PARP11 pIC50 ± S.E.M. (PARP11): 4.78 ± 0.03
PARP11/PARP10 (PARP10cat): <0.33

O=C1NCCc2cc(-c3ccccc3)ccc21 [Compound 8]
pIC50 (PARP11): 5.06
PARP11 pIC50 ± S.E.M. (PARP11): 5.06 ± 0.03
selectivity for PARP10 over PARP11 (PARP10cat): 4 fold
increase in potency for PARP10 compared to comparator compound (PARP10cat): 28 fold
pIC50 (PARP10cat): 5.60
PARP10cat pIC50 ± S.E.M. (PARP10cat): 5.61 ± 0.03
PARP11/PARP10 (PARP10cat): 3.5

O=C1NCCc2cc(-c3cccc(F)c3)ccc21 [Compound 9]
pIC50 (PARP11): 5.21
PARP11 pIC50 ± S.E.M. (PARP11): 5.22 ± 0.04
pIC50 (PARP10cat): 5.85
PARP10cat pIC50 ± S.E.M. (PARP10cat): 5.85 ± 0.03
PARP11/PARP10 (PARP10cat): 4.4

O=C1NCCc2cc(-c3cccc(Cl)c3)ccc21 [Compound 10]
pIC50 (PARP11): 5.24
PARP11 pIC50 ± S.E.M. (PARP11): 5.24 ± 0.03
pIC50 (PARP10cat): 5.96
PARP10cat pIC50 ± S.E.M. (PARP10cat): 5.95 ± 0.02
PARP11/PARP10 (PARP10cat): 5.3

Cc1cccc(-c2ccc3c(c2)CCNC3=O)c1 [Compound 11]
pIC50 (PARP11): 5.34
PARP11 pIC50 ± S.E.M. (PARP11): 5.34 ± 0.03
pIC50 (PARP10cat): 5.68
PARP10cat pIC50 ± S.E.M. (PARP10cat): 5.67 ± 0.02
PARP11/PARP10 (PARP10cat): 2.2

O=C1NCCc2cc(-c3cccc(C(F)(F)F)c3)ccc21 [Compound 12]
decrease in potency for PARP11 compared to compound 8 (PARP11): 2 fold
pIC50 (PARP11): 4.76
PARP11 pIC50 ± S.E.M. (PARP11): 4.76 ± 0.04
selectivity for PARP10 over PARP11 (PARP10cat): 8 fold
improvement in selectivity for PARP10 over PARP11 compared to parent compound (PARP10cat): 2 fold
pIC50 (PARP10cat): 5.64
PARP10cat pIC50 ± S.E.M. (PARP10cat): 5.65 ± 0.03
PARP11/PARP10 (PARP10cat): 7.6

Cc1c(-c2ccccc2)ccc2c1CCNC2=O [Compound 14, 5-methyl-6-phenyl-3,4-dihydroisoquinolin-1(2H)-one]
pIC50 (PARP11): 4.58
PARP11 pIC50 ± S.E.M. (PARP11): 4.58 ± 0.07
aqueous solubility [1]: aqueous solubility issues at higher concentrations
selectivity for PARP10 over PARP11 (PARP10cat): 17 fold
increase in potency for PARP10 compared to comparator compound (PARP10cat): 5 fold
improvement in selectivity for PARP10 over PARP11 compared to parent compound (PARP10cat): 70 fold
PARP10cat pIC50 ± S.E.M. (PARP10cat): 5.80 ± 0.03
PARP11/PARP10 (PARP10cat): 17

Cc1c(-c2cccnc2)ccc2c1CCNC2=O [Compound 15, 5-methyl-6-(pyridiny-3-yl)-3,4-dihydroisoquinolin-1(2H)-one]
pIC50 (PARP11): 4.52
PARP11 pIC50 ± S.E.M. (PARP11): 4.52 ± 0.06
aqueous solubility [1]: increased solubility compared to 14
selectivity for PARP10 over PARP11 (PARP10cat): 12 fold
pIC50 (PARP10cat): 5.60
PARP10cat pIC50 ± S.E.M. (PARP10cat): 5.60 ± 0.04
PARP11/PARP10 (PARP10cat): 12

Cc1c(-c2ccncc2)ccc2c1CCNC2=O [Compound 16, 5-methyl-6-(pyridiny-4-yl)-3,4-dihydroisoquinolin-1(2H)-one]
pIC50 (PARP11): 4.67
PARP11 pIC50 ± S.E.M. (PARP11): 4.67 ± 0.04
aqueous solubility [1]: increased solubility compared to 14
selectivity for PARP10 over PARP11 (PARP10cat): 15 fold
pIC50 (PARP10cat): 5.85
PARP10cat pIC50 ± S.E.M. (PARP10cat): 5.84 ± 0.03
PARP11/PARP10 (PARP10cat): 15

Cc1c(-c2ccc3[nH]ccc3c2)ccc2c1CCNC2=O [Compound 17, 6-(1H-indol-5-yl)-5-methyl-3,4-dihydroisoquinolin-1(2H)-one]
pIC50 (PARP11): 5.38
PARP11 pIC50 ± S.E.M. (PARP11): 5.38 ± 0.04
selectivity for PARP10 over PARP11 (PARP10cat): 4 fold
pIC50 (PARP10cat): 5.96
PARP10cat pIC50 ± S.E.M. (PARP10cat): 5.96 ± 0.03
PARP11/PARP10 (PARP10cat): 3.8

Cc1c(-c2cnc3[nH]ccc3c2)ccc2c1CCNC2=O [Compound 18, 5-methyl-6-(1H-pyrrolo[2,3-b]pyridin-5-yl)-3,4-dihydroisoquinolin-1(2H)-one]
pIC50 (PARP11): 4.92
PARP11 pIC50 ± S.E.M. (PARP11): 4.92 ± 0.05
selectivity for PARP10 over PARP11 (PARP10cat): 17 fold
pIC50 (PARP10cat): 6.15
PARP10cat pIC50 ± S.E.M. (PARP10cat): 6.15 ± 0.03
PARP11/PARP10 (PARP10cat): 17

Cc1c(-c2cnc3ccccc3c2)ccc2c1CCNC2=O [Compound 19, 5-methyl-6-(quinolin-3-yl)-3,4-dihydroisoquinolin-1(2H)-one]
pIC50 (PARP11): 4.85
PARP11 pIC50 ± S.E.M. (PARP11): 4.86 ± 0.04
selectivity for PARP10 over PARP11 (PARP10cat): 8 fold
pIC50 (PARP10cat): 5.74
PARP10cat pIC50 ± S.E.M. (PARP10cat): 5.75 ± 0.02
PARP11/PARP10 (PARP10cat): 7.8

Cc1c(-c2ccnc(F)c2)ccc2c1CCNC2=O [Compound 20, 6-(2-fluoropyridin-4-yl)-5-methyl-3,4-dihydroisoquinolin-1(2H)-one]
pIC50 (PARP11): 4.35
PARP11 pIC50 ± S.E.M. (PARP11): 4.35 ± 0.05
selectivity for PARP10 over PARP11 (PARP10cat): 24 fold
improvement in selectivity for PARP10 over PARP11 compared to parent compound (PARP10cat): ~2 fold
pIC50 (PARP10cat): 5.72
PARP10cat pIC50 ± S.E.M. (PARP10cat): 5.71 ± 0.03
PARP11/PARP10 (PARP10cat): 24

Cc1c(-c2ccnc(Cl)c2)ccc2c1CCNC2=O [Compound 21, 6-(2-chloropyridin-4-yl)-5-methyl-3,4-dihydroisoquinolin-1(2H)-one]
pIC50 (PARP11): 4.57
PARP11 pIC50 ± S.E.M. (PARP11): 4.57 ± 0.02
selectivity for PARP10 over PARP11 (PARP10cat): retained similar selectivity
pIC50 (PARP10cat): 5.74
PARP10cat pIC50 ± S.E.M. (PARP10cat): 5.76 ± 0.03
PARP11/PARP10 (PARP10cat): 15

Cc1c(-c2cncc(F)c2)ccc2c1CCNC2=O [Compound 23, 6-(5-fluoropyridin-3-yl)-5-methyl-3,4-dihydroisoquinolin-1(2H)-one]
pIC50 (PARP11): 4.26
PARP11 pIC50 ± S.E.M. (PARP11): 4.23 ± 0.03
selectivity for PARP10 over PARP11 (PARP10cat): 25 fold
pIC50 (PARP10cat): 5.66
PARP10cat pIC50 ± S.E.M. (PARP10cat): 5.66 ± 0.02
PARP11/PARP10 (PARP10cat): 25

Cc1c(-c2cncc(C(F)(F)F)c2)ccc2c1CCNC2=O [Compound 24, 5-methyl-6-(5-(trifluoromethyl)pyridin-3-yl)-3,4-dihydroisoquinolin-1(2H)-on]
pIC50 (PARP11): 4.04
PARP11 pIC50 ± S.E.M. (PARP11): 4.04 ± 0.03
selectivity for PARP10 over PARP11 (PARP10cat): 34 fold and 35 fold
PARP10cat pIC50 ± S.E.M. (PARP10cat): 5.57 ± 0.03
PARP11/PARP10 (PARP10cat): 34

NC(=O)c1ccc(Oc2ccc(C(N)=O)cc2)cc1 [OUL35, 4,4′-oxydibenzamide, reference compound]
pIC50 (PARP11): 5.68
PARP11 pIC50 ± S.E.M. (PARP11): 5.68 ± 0.03
